Results: ChEMBL document CHEMBL5252649, “CRBN ligand expansion for hematopoietic prostaglandin D2 synthase (H-PGDS) targeting PROTAC design and their in vitro ADME profiles” (Bioorg Med Chem, 2023)
≈ marks a conversion by molar mass, not a printed value.

How the values were obtained:
[1] = target: Protein cereblon/Hematopoietic prostaglandin D synthase (Homo sapiens, UniProt O60760+Q96SW2); assay: PROTAC activity at CRBN/H-PGDS in human KU812 cells assessed as induction of H-PGDS degradation by measuring decrease in H-PGDS protein expression incubated for 24 hrs by western blot analysis; type: cell-based; conditions: for DC50: ku812 cell line; for Activity: KU812 cell line
[2] = Solubility of the compound in PBS buffer at 100 uM at pH 7.4 by UPLC/MS/MS analysis; type: physicochemical
[3] = Lipophilicity, logD of the compound by UPLC analysis; type: physicochemical; conditions: octanol/water
[4] = Apparent permeability coefficient, Papp of the compound at pH 7.4 incubated for 4 hrs by UPLC/MS/MS analysis; type: ADME; conditions: for Papp at 4 h: not told, pH 7.4
[5] = Metabolic stability of the compound in human liver microsomes incubated for 10 mins in presence of NADPH by UPLC/MS/MS analysis; type: ADME, Microsome; conditions: read-out: Stability
[6] = Metabolic stability of the compound in human liver microsomes incubated for 60 mins in presence of NADPH by UPLC/MS/MS analysis; type: ADME, Microsome; conditions: read-out: Stability

Compound | DC50 [1] [nM] | solubility at 100 µM [2] [µM] | logD [3] | Papp ([4]; pH 7.4, 4 h) [×10⁻⁶ cm/s] | remaining at 10 min [5] [%] | remaining at 1 h [6] [%] | Papp at 4 h [4] [×10⁻⁶ cm/s] | Activity [1]
O=C1CCC(N2C(=O)c3cc(F)c(N4CCN(C(=O)C5CCN(c6ccc(NC(=O)c7cnc(Oc8ccccc8)nc7)cc6)CC5)CC4)cc3C2=O)C(=O)N1 (stereo not drawn) | 0.147 | < 0.5 | 3.5 | – | 93 | 69 | 0.007 | Dose-Dependent Effect
O=C1CCC(N2C(=O)c3cccc(N4CCN(C(=O)C5CCN(c6ccc(NC(=O)c7cnc(Oc8ccccc8)nc7)cc6)CC5)CC4)c3C2=O)C(=O)N1 (stereo not drawn) | 0.036 | 1.12 (≈ 0.832 µg/mL) | 3.39 | – | 89 | 75 | 0.07 | –
O=C(Nc1ccc(N2CCC(C(=O)N3CCOCC3)CC2)cc1)c1cnc(Oc2ccccc2)nc1 | – | 3.17 (≈ 1.55 µg/mL) | 3.06 | – | 96 | 80 | 3.01 | –
O=C1CCC(c2ccc(NCC(=O)N3CCN(C(=O)C4CCN(c5ccc(NC(=O)c6cnc(Oc7ccccc7)nc6)cc5)CC4)CC3)cc2)C(=O)N1 (stereo not drawn) | 0.104 | 7 (≈ 5.12 µg/mL) | 3 | – | 89 | 78 | 0.2 | Dose-Dependent Effect

The next lines start with the values.

DC50 [1] [nM] | solubility at 100 µM [2] [µM] | logD [3] | Papp ([4]; pH 7.4, 4 h) [×10⁻⁶ cm/s] | remaining at 10 min [5] [%] | remaining at 1 h [6] [%] | Papp at 4 h [4] [×10⁻⁶ cm/s] | Activity [1] | Compound
0.02 | 37.4 (≈ 28.6 µg/mL) | 2.79 | 0.0007 | 93 | 79 | – | – | Cn1cccc1C(=O)N1CCN(C(=O)Nc2ccc(N3CCC(C(=O)N4CCN(c5cccc6c5C(=O)N(C5CCC(=O)NC5=O)C6=O)CC4)CC3)cc2)CC1 (stereo not drawn)
– | ≥ 95 | 2.25 | – | 92 | 83 | 0.21 | – | Cn1cccc1C(=O)N1CCN(C(=O)Nc2ccc(N3CCC(C(=O)N4CCOCC4)CC3)cc2)CC1
0.02 | 2.91 (≈ 2.22 µg/mL) | 2.65 | – | 90 | 72 | 0.009 | – | Cn1cccc1C(=O)N1CCN(C(=O)Nc2ccc(N3CCC(C(=O)N4CCN(c5ccc6c(c5)C(=O)N(C5CCC(=O)NC5=O)C6=O)CC4)CC3)cc2)CC1 (stereo not drawn)
0.175 | < 0.5 | 3.33 | – | 93 | 80 | 0.049 | – | O=C1CCC(N2C(=O)c3ccc(N4CCN(C(=O)C5CCN(c6ccc(NC(=O)c7cnc(Oc8ccccc8)nc7)cc6)CC5)CC4)cc3C2=O)C(=O)N1 (stereo not drawn)
